Reference: patent US10017535B2, “Amphiphilic compounds with neuroprotective properties” (USTAV ORGANICKE CHEMIE A BIOCHEMIE AV CR, v.v.i., priority 2014, dated 2018)
Read-outs that look alike come from different tables or passages of the source.

Experiments:
[1] = system: NMDA receptors on hipocampal neurones; settings: 100 μmol·l^−1 pregnanolone sulfate, responses to 100 μmol·l^−1 NMDA, n=5; cited from earlier work
[2] = biological target: T1, NR1-1a/NR2B NMDA receptor (Rattus norvegicus, UniProt P35439+Q00960); experiment: Patch-clamp inhibition of glutamate-evoked currents at recombinant NMDA receptors in transfected HEK293 cells; type: cell-based; settings: calculated from relative steroid-induced inhibition, Hill's coefficient 1.2; read-out: IC50
T1 construct: expressed in transfected cells; host or cells: HEK293 cells (ATCC CRL1573)
Procedure, shortened: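 HEK293 cells co-transfected with rat NR1-1a/NR2B plus GFP were whole-cell patch-clamped 16-40 h post-transfection at −60 mV. Currents were evoked by 1 mmol·l^−1 glutamate with 10 μmol·l^−1 glycine in ECS pH 7.3, and steroid was co-applied in DMSO via fast perfusion. IC50 came from relative inhibition.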

[3] = biological target: T1, NR1-1a/NR2B NMDA receptor; settings: 100 μmol·l^−1 pregnanolone sulfate, recombinant NR1/NR2B receptors, n=5, cited from earlier work
[4] = system: laboratory mice, strain CD-1; experiment: Forced swimming test (antidepressant effect); type: in vivo; further: key: −: the desired effect was not observed; −/+: the desired effect was insufficient; +: the desired effect was observed
Procedure: (§1) In the Experimental Part 1 were used adults (30-35 g) male laboratory mice, strain CD-1 from Velaz facility, Czech Republic. Mice were housed in plastic boxes with a 12-hour light cycle (lights on at 7:00 pm). Mice had free access to food and water.
This assay was used to monitor the antidepressant effect. Animals float 6 minutes in acrylic cylinder in water at 24° C. A period of immobility is evaluated. The reduction is a manifestation of anti-depressant properties of drugs.

[5] = system: laboratory mice, strain CD-1; experiment: Passive avoidance test (aversive motivated memory); type: in vivo; further: key: −: the desired effect was not observed; −/+: the desired effect was insufficient; +: the desired effect was observed
Procedure: as §1
Aversive motivated memory test was evaluated on the basis of latency input into the preferred, but unpleasant sensation associated with delivery device.

[6] = system: laboratory mice, strain CD-1; experiment: Open field test (locomotor activity, sedative effect); type: in vivo; on Open Field Test No Evidence of Hyperlocomotion: key: −: the desired effect was not observed; −/+: the desired effect was insufficient; +: the desired effect was observed
Procedure: as §1
Amphiphilic steroid compounds were dissolved in a solution of 3 g (2-hydroxypropyl)-β-cyclodextrin (CDX, Sigma-Aldrich) and 157 mg of citric acid ([…], Sigma-Aldrich) in 30 ml of distilled water, the pH was adjusted to 7.4 using sodium hydroxide (NaOH, Sigma-Aldrich). Thus there were prepared solutions of the four steroids for application rates of 0.1, 1, 10 and 100 mg/kg.
The efficacy of the studied compounds was compared to known NMDA antagonist is memantine (Sigma-Aldrich) at a dose of 5 mg/kg in rats, ketamine (Vétoquinol) at 10 mg/kg and dizocilpine (MK-801) (Sigma-Aldrich) at a dose of 0.3 mg/kg in mice. These three compounds were dissolved in saline (B Braun).
The substances at dose 0.1-100 mg/kg were administered before the test to mice intraperitoneally. As controls were used intact mice and mice that received CDX solution. Also, MK-801 (0.3 mg/kg) was used for comparison of effects of noncompetitive antagonist of NMDA receptors. From the experiment was evaluated overall track anywhere in the arena as an indicator of locomotor activity. In addition, it was judged a ten-minute segments track during each experiment. Based on these values, it was possible to determine the latency time of onset of action and changes in locomotor activity over time.
In this arrangement, the sedative effect of the studied compounds at the highest dose was evaluated. […] Over time was monitored locomotor activity and possible changes characterized by tremor, ataxia, restlessness, or sedation or general anesthesia (absence of response to stimuli, decreased muscle tone).

[7] = system: NMDA lesion of the dorsal hippocampus in rats; experiment: Active allothetic place avoidance (AAPA) after bilateral excitotoxic NMDA lesion of dorsal hippocampus; type: in vivo, rat Long-Evans strain; settings: 1 mg/kg after surgery, vs NMDA group
Procedure: In the Experimental Part 2 were used adult (3 months old, 300-400 g) male rat Long-Evans strain. The animals come from herds Institute of Physiology ASCR. The rats were housed in clear plastic boxes with the same light cycle as in mice. Animals had free access to food and water. All experiments were carried out in the light of clay. All experiments were carried out in accordance with the Law on protection of animals against cruelty.
The anesthetized rats were used in operations isoflurane (3.5%, Baxter). To recall excitotoxic lesion of the dorsal hippocampus was applied 0.05 mol·l^−1 solution of NMDA (Sigma-Aldrich) in 0.4 mol·l^−1 phosphate buffer solution prepared by mixing 356 g Na2HPO4.12H2O (Mw358.14) in 4.2 l of distilled water and a solution of 62.4 g NaHPO4. 2H2O (Mw156.01) in 0.8 l of distilled water. The pH of the resulting solution of NMDA was adjusted to 7.4 with NaOH.
In this experiment, the neuroprotective effects were evaluated for amphiphilic steroid compounds. The procedure was performed according to Neuropharmacology 61, 61-68 (2011)
The rats were randomly divided into eleven groups. The control group included operated animals, which were injected by phosphate buffer […] into the hippocampus. In the second group, the animals had NMDA lesions of the hippocampus. The animals of the third group were applied clinically used NMDA antagonist memantine at a dose of 5 mg/kg after NMDA lesion. The other groups were administered the compounds at a dose of 1 mg/kg.
The test was performed in rotating arena with prohibited sector in the form of a circular sector (60°). If the rat entered the sector, its limbs received weak electrical impulse.
Test memory and spatial cognition in rats using AAPA was evaluated over four sessions, which are in healthy rats sufficient to achieve asymptotic level (Behay. Brain. Res. 189, 139-144 (2008)). To evaluate memory and spatial cognition was used data from the fourth session, and the number of entries into the forbidden sector and the maximum avoidance sector. […] After the experiment, the localization of the lesion was histologically verified.
Data were analyzed using the non parametric test of Maim Whitney criteria using the GraphPad. The difference was considered significant for p<0.05, for a non-significant tendency then for 0.05<p<0.075.

[8] = system: laboratory mice, strain CD-1; type: in vivo; settings: intraperitoneally, 1 mg/kg; further: key: −: the desired effect was not observed; −/+: the desired effect was insufficient; +: the desired effect was observed
Procedure: as §1
Thus there were prepared solutions of the four steroids for application rates of 0.1, 1, 10 and 100 mg/kg.
Laboratory mouse was chosen as a model organism for this experiment. The following experiments were performed as described in Front Behay. Neurosci.
The purpose of the primary behavioral testing was quickly determined the effect of compounds on CNS dependent functions and any signs of toxicity. A simplified modification Irwin test was selected with respect to the behavioral profile of NMDA receptor antagonists. Mice were tested individually. The study drug was administered intraperitoneally (Table 3) at a dose of 1 mg/kg. The control group consisted of individuals that received the CDX solution or saline.

T1 sequence (Q00960 27-1482, other chains not shown): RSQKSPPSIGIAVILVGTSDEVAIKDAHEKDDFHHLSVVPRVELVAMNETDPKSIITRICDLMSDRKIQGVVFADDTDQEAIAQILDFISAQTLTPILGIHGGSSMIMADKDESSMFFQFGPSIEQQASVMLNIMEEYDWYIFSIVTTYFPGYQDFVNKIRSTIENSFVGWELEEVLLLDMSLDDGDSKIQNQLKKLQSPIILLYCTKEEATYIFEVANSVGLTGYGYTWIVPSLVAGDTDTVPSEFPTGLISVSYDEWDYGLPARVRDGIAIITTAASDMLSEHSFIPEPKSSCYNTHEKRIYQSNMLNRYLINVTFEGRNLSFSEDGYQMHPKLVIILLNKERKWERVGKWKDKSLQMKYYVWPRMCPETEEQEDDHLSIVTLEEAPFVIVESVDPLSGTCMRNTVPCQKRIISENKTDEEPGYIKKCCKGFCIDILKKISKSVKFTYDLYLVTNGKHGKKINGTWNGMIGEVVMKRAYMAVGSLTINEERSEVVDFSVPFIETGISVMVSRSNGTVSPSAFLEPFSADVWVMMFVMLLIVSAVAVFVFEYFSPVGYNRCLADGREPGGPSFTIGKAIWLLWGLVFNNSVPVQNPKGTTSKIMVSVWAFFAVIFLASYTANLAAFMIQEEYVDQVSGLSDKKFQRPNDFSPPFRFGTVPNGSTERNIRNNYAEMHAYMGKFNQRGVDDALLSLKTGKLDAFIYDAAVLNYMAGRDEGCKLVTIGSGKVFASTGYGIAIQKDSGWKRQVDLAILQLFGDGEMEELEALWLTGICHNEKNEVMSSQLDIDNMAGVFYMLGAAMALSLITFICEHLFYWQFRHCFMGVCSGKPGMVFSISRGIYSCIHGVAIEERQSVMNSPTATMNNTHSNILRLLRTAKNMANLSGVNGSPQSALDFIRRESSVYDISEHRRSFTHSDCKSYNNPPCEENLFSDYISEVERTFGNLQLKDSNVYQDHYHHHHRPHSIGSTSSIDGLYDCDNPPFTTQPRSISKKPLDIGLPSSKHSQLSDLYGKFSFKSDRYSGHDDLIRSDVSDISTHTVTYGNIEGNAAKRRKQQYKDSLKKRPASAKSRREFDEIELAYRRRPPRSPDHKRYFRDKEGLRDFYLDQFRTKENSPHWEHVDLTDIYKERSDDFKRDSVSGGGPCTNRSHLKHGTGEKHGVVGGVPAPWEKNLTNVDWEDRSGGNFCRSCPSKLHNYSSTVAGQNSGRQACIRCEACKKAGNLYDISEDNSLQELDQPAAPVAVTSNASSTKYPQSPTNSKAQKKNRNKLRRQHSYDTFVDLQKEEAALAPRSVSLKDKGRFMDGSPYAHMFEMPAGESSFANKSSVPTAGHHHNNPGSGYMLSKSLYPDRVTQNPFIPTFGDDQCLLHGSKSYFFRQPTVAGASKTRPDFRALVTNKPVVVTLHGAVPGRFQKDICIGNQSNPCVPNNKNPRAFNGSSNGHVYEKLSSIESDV

Row | Compound | mean inhibition effect [1] [%] | IC50 [2] [µM] | mean inhibition effect (Mean % change ± SD) ([3]; listed as 5beta-pregnanolon-3alpha-yl 3-sulfate) [%] | mean inhibition effect (Mean % change ± SD) ([3]; listed as pregnanolone sulfate) [%] | Forced Swimming Test Reduced Floating [4] | Passive Avoidance Test No Memory Violation [5] | pathway in open field ([6]; dose 10 and 100 mg/kg, vs intact mice) | locomotor activity over time ([6]; higher dose of 10 resp. 100 mg/kg) | Open Field Test No Evidence of Hyperlocomotion ([6]; intraperitoneally, 0.1-100 mg/kg) | Sedative Effect The Rapid Onset of Sedation at a Dose of 100 mg/kg ([6]; intraperitoneally, 100 mg/kg) | hyperlocomotion in open field ([6]; lower doses (below 10 mg/kg)) | maximum time avoiding the sector, fourth session of AAPA [7] | number of entries into the forbidden sector, fourth session of AAPA [7] | Behavioural Test No Evidence of Toxicity [8]
1 | 5beta-pregnanolon-3alpha-yl 3-sulfate [3alfa,5beta-Pregnanolone sulfate] | 71.3±5.0 | 55 | 67 | 67.2±8.2 |  |  |  |  |  |  |  |  |  | 
2 | C[C@H]1CC[C@H]2[C@@H]3CC[C@@H]4C[C@H](OC(=O)[C@@H](N)CCC(=O)O)CC[C@]4(C)[C@H]3CC[C@]12C [Compound 81, (4S)-4-Amino-5-oxo-5-(((3R,5R,8S,9S,10S,13R,14S,17S)-10,13,17-trimethylhexadecahydro-1H-cyclopenta[a]phenanthren-3-yl)oxy)pentanoic acid] |  |  |  |  | − | + | significant reduction | significant decrease | + | + | not (unlike groups with dizocilpine) observed hyperlocomotion | tendency to increase | reduced number of entries | +
